Source: patent US11578072B2, “Spiro-lactam NMDA receptor modulators and uses thereof” (Aptinyx Inc., priority 2018, dated 2023)

Assays:
NMDAR2A = biological target: T1, NMDAR2A (Homo sapiens, UniProt Q12879); test: NMDAR agonist assay, [3H]MK-801 binding, NMDAR2A expressing HEK cell membranes; type: biochemical; set-up: key to NMDAR2A B: log EC50: 0=−; >1×10^−9 M (e.g., −8)=+; <1×10^−9 M (e.g., −10)++; conditions: 50 μM glutamate; for EC50: read-out: NMDAR2A B: log EC50 (converted)
T1 construct: expressed in transfected cells; host or cells: HEK cells (membrane extract)
T1 sequence (Q12879 23-1464, species assumed, other chains not shown): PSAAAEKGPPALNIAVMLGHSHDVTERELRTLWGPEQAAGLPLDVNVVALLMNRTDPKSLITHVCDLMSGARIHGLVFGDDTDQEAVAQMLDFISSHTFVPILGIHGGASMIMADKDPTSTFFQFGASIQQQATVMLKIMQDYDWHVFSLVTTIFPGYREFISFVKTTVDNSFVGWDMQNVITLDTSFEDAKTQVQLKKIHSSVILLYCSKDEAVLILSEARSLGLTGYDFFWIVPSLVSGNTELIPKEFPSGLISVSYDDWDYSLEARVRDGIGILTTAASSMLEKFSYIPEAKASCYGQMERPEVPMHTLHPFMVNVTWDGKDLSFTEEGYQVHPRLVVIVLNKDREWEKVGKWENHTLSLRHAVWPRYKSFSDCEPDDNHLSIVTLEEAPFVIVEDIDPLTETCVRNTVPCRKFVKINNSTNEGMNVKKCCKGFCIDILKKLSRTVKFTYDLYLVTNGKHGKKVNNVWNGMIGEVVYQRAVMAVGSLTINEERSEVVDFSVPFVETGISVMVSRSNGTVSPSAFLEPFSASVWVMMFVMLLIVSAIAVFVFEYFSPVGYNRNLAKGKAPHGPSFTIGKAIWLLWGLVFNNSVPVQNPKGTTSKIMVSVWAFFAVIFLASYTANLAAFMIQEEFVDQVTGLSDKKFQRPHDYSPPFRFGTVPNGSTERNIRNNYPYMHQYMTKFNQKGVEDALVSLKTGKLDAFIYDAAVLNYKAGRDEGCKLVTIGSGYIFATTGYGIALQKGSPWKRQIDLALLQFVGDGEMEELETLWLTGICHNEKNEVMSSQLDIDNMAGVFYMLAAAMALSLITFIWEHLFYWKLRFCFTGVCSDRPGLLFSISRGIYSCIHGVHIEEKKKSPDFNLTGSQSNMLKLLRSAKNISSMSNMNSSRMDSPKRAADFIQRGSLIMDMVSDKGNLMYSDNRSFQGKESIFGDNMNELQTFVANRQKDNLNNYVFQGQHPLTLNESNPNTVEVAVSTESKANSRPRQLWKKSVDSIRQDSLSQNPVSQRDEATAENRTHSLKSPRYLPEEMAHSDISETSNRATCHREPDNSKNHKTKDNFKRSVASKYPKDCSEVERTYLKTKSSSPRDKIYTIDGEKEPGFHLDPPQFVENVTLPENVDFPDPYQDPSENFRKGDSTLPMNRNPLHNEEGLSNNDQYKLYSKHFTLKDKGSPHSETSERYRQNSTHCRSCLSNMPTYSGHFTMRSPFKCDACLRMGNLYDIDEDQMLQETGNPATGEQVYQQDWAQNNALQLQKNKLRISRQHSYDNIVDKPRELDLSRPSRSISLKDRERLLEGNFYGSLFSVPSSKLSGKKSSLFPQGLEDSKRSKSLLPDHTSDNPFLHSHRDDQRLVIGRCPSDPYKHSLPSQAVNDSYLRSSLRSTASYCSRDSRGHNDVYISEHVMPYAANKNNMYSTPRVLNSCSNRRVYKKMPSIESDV
Experimental: (§1) Assays were conducted as described by Moskal et al., “GLYX-13: a monoclonal antibody-derived peptide that acts as an N-methyl-D-aspartate receptor modulator,” Neuropharmacology, 49, 1077-87, 2005. These studies were designed to determine if the test compounds act to facilitate NMDAR activation in NMDAR2A, NMDAR2B, NMDAR2C or NMDAR2D expressing HEK cell membranes as measured by increases in [3H]MK-801 binding.
(§2) In the assay, 300 μg of NMDAR expressing HEK cell membrane extract protein was preincubated for 15 minutes at 25° C. in the presence of saturating concentrations of glutamate (50 μM) and varying concentrations of test compound (1×10^−15M-1×10^−7M), or 1 mM glycine. Following the addition of 0.3 μCi of [3H]MK-801 (22.5 Ci/mmol), reactions were again incubated for 15 minutes at 25° C. (nonequilibrium conditions). Bound and free [3H]MK-801 were separated via rapid filtration using a Brandel apparatus.
(§3) In analyzing the data, the DPM (disintegrations per minute) of [3H]MK-801 remaining on the filter were measured for each concentration of test compound or for 1 mM glycine. The DPM values for each concentration of a ligand (N=2) were averaged. The baseline value was determined from the best fit curve of the DPM values modeled using the GraphPad program and the log(agonist) vs. response(three parameters) algorithm was then subtracted from all points in the dataset. The % maximal [3H]MK-801 binding was then calculated relative to that of 1 mM glycine: all baseline subtracted DPM values were divided by the average value for 1 mM glycine. The EC50 and % maximal activity were then obtained from the best fit curve of the % maximal [3H]MK-801 binding data modelled using the GraphPad program and the log(agonist) vs. response(three parameters) algorithm.
(§4) The tables below summarize the results for the wild type NMDAR agonists NMDAR2A, NMDAR2B, NMDAR2C, and NMDAR2D, and whether the compound is not an agonist (−), is an agonist (+), or is a strong agonist (++), where column A is based on the % maximal [3H]MK-801 binding relative to 1 mM glycine (−=0; <100%=+; and >100%=++); and column B is based on log EC50 values (0=−; >1×10^−9 M (e.g., −8)=+; and <1×10^−9 M (e.g., −10)++).

NMDAR2B = biological target: T2, NMDAR2B (Homo sapiens, UniProt Q13224); test: NMDAR agonist assay, [3H]MK-801 binding, NMDAR2B expressing HEK cell membranes; type: biochemical; conditions: 50 μM glutamate; for EC50: read-out: NMDAR2B B: log EC50 (converted)
T2 construct: expressed in transfected cells; host or cells: HEK cells (membrane extract)
T2 sequence (Q13224 27-1484, species assumed, other chains not shown): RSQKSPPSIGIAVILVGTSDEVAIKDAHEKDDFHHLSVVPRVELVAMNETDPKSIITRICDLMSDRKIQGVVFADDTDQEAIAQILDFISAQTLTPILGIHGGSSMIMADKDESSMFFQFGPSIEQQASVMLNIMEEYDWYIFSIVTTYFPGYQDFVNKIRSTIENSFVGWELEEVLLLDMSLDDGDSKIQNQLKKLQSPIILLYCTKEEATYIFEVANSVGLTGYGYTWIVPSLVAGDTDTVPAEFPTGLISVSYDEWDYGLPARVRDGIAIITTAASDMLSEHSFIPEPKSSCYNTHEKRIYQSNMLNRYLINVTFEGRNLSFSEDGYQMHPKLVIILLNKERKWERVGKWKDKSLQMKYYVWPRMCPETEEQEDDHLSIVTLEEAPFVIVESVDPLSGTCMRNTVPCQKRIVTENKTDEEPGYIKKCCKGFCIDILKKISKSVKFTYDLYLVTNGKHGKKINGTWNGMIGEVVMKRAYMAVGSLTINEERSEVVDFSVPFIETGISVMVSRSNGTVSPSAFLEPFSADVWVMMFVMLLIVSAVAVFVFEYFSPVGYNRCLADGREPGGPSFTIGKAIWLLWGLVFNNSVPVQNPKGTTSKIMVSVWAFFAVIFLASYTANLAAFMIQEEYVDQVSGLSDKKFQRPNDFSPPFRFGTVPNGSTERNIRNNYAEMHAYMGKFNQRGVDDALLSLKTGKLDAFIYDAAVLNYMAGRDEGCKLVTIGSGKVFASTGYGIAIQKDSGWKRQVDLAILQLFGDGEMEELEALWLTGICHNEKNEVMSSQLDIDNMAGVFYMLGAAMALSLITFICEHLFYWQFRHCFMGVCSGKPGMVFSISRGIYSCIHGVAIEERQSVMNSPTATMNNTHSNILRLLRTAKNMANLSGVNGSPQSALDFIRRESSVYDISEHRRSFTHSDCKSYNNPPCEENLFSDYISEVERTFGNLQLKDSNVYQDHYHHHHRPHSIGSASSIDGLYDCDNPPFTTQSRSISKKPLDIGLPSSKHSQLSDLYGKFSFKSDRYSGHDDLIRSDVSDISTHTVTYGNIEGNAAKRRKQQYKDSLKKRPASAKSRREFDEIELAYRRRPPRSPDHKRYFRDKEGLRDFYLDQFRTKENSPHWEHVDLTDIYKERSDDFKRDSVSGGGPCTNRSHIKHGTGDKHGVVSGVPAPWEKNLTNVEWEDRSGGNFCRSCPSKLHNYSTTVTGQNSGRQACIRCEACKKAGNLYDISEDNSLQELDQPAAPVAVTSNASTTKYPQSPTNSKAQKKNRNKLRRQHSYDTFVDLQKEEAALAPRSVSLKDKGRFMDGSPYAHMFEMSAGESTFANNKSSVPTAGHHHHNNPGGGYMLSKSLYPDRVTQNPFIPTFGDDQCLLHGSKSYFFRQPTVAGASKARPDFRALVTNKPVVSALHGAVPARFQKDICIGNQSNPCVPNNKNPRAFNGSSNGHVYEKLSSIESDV
Experimental: as §1, §2, §3, §4

NMDAR2D [1] = biological target: T3, NMDAR2D (Homo sapiens, UniProt O15399); test: NMDAR agonist assay, [3H]MK-801 binding, NMDAR2D expressing HEK cell membranes; type: biochemical; conditions: 50 μM glutamate
T3 construct: expressed in transfected cells; host or cells: HEK cells (membrane extract)
T3 sequence (O15399 28-1336, species assumed, other chains not shown): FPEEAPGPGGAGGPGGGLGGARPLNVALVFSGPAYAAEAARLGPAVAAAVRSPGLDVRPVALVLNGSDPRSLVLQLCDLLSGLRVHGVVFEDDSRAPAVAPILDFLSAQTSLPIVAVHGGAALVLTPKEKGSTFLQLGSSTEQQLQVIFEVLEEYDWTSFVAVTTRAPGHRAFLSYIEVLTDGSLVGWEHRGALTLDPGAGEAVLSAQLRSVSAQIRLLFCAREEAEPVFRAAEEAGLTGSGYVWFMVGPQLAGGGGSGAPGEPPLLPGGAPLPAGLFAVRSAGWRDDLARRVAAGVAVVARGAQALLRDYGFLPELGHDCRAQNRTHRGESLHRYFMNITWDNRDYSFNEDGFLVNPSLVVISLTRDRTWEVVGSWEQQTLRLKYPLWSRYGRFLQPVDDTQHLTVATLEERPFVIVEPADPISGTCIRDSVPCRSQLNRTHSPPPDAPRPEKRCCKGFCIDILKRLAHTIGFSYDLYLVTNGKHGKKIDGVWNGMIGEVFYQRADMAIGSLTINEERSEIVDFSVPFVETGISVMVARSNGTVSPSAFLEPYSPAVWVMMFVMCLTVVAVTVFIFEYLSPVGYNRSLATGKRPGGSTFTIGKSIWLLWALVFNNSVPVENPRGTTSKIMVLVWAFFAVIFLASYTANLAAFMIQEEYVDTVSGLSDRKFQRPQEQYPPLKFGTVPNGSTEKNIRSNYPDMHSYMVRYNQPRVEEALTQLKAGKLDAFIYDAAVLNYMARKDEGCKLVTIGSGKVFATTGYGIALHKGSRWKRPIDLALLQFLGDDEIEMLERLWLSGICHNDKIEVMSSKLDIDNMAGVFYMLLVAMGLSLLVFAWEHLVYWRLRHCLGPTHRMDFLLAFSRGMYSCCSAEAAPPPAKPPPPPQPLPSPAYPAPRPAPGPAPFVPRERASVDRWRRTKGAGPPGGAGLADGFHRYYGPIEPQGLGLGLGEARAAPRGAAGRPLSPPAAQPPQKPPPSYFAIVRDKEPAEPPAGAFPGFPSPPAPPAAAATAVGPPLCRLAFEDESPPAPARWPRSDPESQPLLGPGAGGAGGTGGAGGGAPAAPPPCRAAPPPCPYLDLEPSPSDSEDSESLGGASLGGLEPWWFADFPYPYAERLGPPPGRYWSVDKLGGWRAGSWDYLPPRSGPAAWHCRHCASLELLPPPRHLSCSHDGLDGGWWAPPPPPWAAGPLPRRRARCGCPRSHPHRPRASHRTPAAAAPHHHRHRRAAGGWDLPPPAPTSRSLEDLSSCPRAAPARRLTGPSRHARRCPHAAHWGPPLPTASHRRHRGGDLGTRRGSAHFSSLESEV
Experimental: as §1, §2, §3, §4

NMDAR2D [2] = biological target: T4, NMDAR2D (Homo sapiens, UniProt O15399+Q05586); test: as above; type: biochemical; conditions: 50 μM glutamate, read-out: NMDAR2D B: log EC50 (converted)
T4 construct: expressed in transfected cells; host or cells: HEK cells (membrane extract)
T4 sequence (O15399 28-1336, species assumed, other chains not shown): as above
Experimental: as §1, §2, §3, §4

[3] = IV pharmacokinetics in rats; conditions: Sprague Dawley, in vivo, rat, 2 mg/kg, normal saline; for Vd: read-out: Vss
Experimental: Sprague Dawley rats were dosed intravenously using a normal saline formulation containing 2 mg/kg of the compounds identified in the below table. The table below summarizes the results of the IV pharmacokinetics.

[4] = Oral pharmacokinetics in rats (plasma, brain, CSF); type: in vivo, Sprague Dawley rats; conditions: rat, oral gavage, 10 mg/kg; for bioavailability / AUC(0-t) / Cmax / Tmax: Sprague Dawley, plasma
Experimental: In another experiment, Sprague Dawley rats were dosed per os (oral gavage) using a normal saline formulation containing 10 mg/kg of the compounds identified in the table below. Plasma, brain, and CSF samples were analyzed at various time points over a 24 hour period. The table below summarizes the results of the oral pharmacokinetics, where the first three values (Tmax, Cmax and AUClast) are plasma values.

[5] = Microsomal stability (Human); type: in vitro ADME; conditions: human microsomes, after 60 minutes
Experimental: (§5) Microsomal stability of disclosed compounds was investigated. The following table indicates the percent of compound remaining after 60 minutes.

[6] = Microsomal stability (Rat); type: in vitro ADME; conditions: rat microsomes, after 60 minutes
Experimental: as §5

Plasma stability (Human) = type: in vitro ADME; conditions: after 60 minutes
Experimental: (§6) Plasma stability of disclosed compounds was investigated. The following table indicates the percent of compound remaining after 60 minutes.

Plasma stability (Rat) = type: in vitro ADME; conditions: after 60 minutes
Experimental: as §6

Sprague Dawley rats = test: Bennett nerve injury assay (mechanical analgesia, paw withdrawal threshold); type: in vivo; conditions: 150 mg/kg PO
Experimental: The Bennett model of mechanical analgesia is used to assess the analgesic effects of compounds as measured by paw withdrawal threshold. Bennett G J, Xie Y K, “A peripheral mononeuropathy in rat that produces disorders of pain sensation like those seen in man,” Pain 33:87-107, 1988. […] Vehicle animals receive the surgery and then receive vehicle rather than test compound. Animals were tested 1 hr, 24 h and 1 wk post-test compound or vehicle administration.
Male 2-3 month old Sprague Dawley rats were used. Harlan was the supplier for all studies. Rats were housed in Lucite cages with aspen wood chip bedding, maintained on a 12:12 light:dark cycle (lights on at 5 AM), and given ad libitum access to Purina lab chow (USA) and tap water throughout the study.
Rats were anesthetized using inhaled isoflurane (2.5%). Sciatic nerve chronic constriction nerve injury surgery was performed as previously described (Bennett and Xie, 1988). An incision (˜1.5 cm in length) was made with a scalpel blade dorsally through skin on the right hind limb, parallel and posterior to femur. Using a small pointed hemostat, the biceps femoris and gluteus superficialis muscles were separated. Using curved blunt forceps, the common sciatic nerve was isolated and exposed. For the mechanical analgesia studies, the whole sciatic nerve was ligated. Using hemostats/forceps and chromic gut (5-0), the nerve was loosely ligated with a square knot; 3 ligatures, 1 mm apart were placed on the nerve. […] Testing occurred approximately 2 weeks post-surgery.
During testing, rats were acclimated to the surface of a suspended wire mesh grid (1 cm×1 cm, with the wire being 0.3 cm in diameter) for 15-20 min. Starting from the smallest, each Von Frey filament was pressed perpendicularly to the plantar surface of the affected (ipsilateral) hind paw until slightly bent and then held for 6 second. If an obvious hind paw withdrawal or a flinching behavior immediately after the withdrawal of the filament was not observed, the next larger filament was used in the same manner. In case of a response, a lower filament was used. This was repeated until six responses were collected.
For all studies, animals were baselined prior to study start to test for allodynia (defined as a paw withdrawal threshold under 5). A subset of animals was tested with gabapentin (150 mg/kg, PO) to ensure at least 50% analgesia. Once it was confirmed animals were ready for study initiation, animals were balanced across groups. All study investigators were blind to treatment conditions. Animals were dosed with 0.1, 1 or 10 mg/kg of test compound via oral gavage (PO), control sets of animals were dosed with gabapentin (150 mg/kg, PO) or vehicle (0.5% Na-CMC in 0.9% sterile saline, PO). Testing occurred 1 h post-dosing with animals retested 24 hrs and 1 week post-dosing. The percent analgesia calculations for each animal were made using the following equation: % analgesia=[(log(x)−y)/((log (z)−y)]*100, where x=the paw withdrawal threshold for the drug-treated animal in grams, y=the average of the log(x) values for the vehicle treated group, and z=the paw withdrawal threshold for naïve animals in grams (historical value of 15 used). The results for Compound AD, where the percentage of analgesia is measured at 1 hour, 24 hours, and 1 week after compound administration are as follows: for 0.1 mg/kg dose: 38.7% at 1 h, 34.5% at 24 h, and 19.7% at 1 wk; for 1 mg/kg dose: 24.1% at 1 h, 26.5% at 24 h, and 13.2% at 1 wk; and for 10 mg/kg dose: 61.2% at 1 h, 45.1% at 24 h, and 39.5% at 1 wk.

| Structure (SMILES) | NMDAR2A A: % maximal [3H]MK-801 binding relative to 1 mM glycine (NMDAR2A) | NMDAR2B A: % maximal [3H]MK-801 binding relative to 1 mM glycine (NMDAR2B) | EC50 (NMDAR2B) [nM] | AUC(0-t) [3] [ng·h/mL] | Cmax [3] [ng/mL] | clearance [3] [mL/min/kg] | half-life [3] [min] | Vd [3] [L/kg] | bioavailability [4] [%] | AUC(0-t) [4] [ng·h/mL] | Cmax [4] [ng/mL] | Tmax [4] [h] | CSF Cmax [4] [ng/mL] | Brain Cmax [4] [ng/mL] | Microsomal (Human): percent of compound remaining [5] [%] | Microsomal (Rat): percent of compound remaining [6] [%] | Plasma (Human): percent of compound remaining (Plasma stability (Human)) [%] | Plasma (Rat): percent of compound remaining (Plasma stability (Rat)) [%] | EC50 (NMDAR2A) [nM] | also measured |
| --- | --- | --- | --- | --- | --- | --- | --- | --- | --- | --- | --- | --- | --- | --- | --- | --- | --- | --- | --- | --- |
| O=C(O)C(F)(F)F.O=C1NCCCC12CCNCC2 [AA, 2,9-diazaspiro[5.5]undecan-1-one] | − (−=0) | + (<100%=+) | < 1 | 1160 | 2660 | 28.4 | 120 | 1.76 | 18 | 1020 | 325 | 2.11 | 12 | 0 | 96 | 91 | 97 | 84 |  | NMDAR2A B: log EC50 (NMDAR2A): −; NMDAR2D A: % maximal [3H]MK-801 binding relative to 1 mM glycine (NMDAR2D [1]): ++ (>100%=++); EC50 (NMDAR2D [2]): < 1 nM |
| CC(C)(C)OC(=O)N1CCC2(CCCNC2=O)CC1 [AC, tert-butyl 1-oxo-2,9-diazaspiro[5.5]undecane-9-carboxylate] | + (<100%=+) | + (<100%=+) | < 1 | 845 | 5660 | 39.5 | 7.2 | 0.31 | 44 | 1860 | 3630 | 0.25 | 261 | 298 | 100 | 96 | 100 | 100 | > 1 |  |
| O=C1NCCCCC12CCNCC2 [AG, 3,8-diazaspiro[5.6]dodecan-7-one] | + (<100%=+) | + (<100%=+) | < 1 |  |  |  |  |  |  |  |  |  |  |  |  |  |  |  | < 1 |  |
| NCC1(CC(=O)O)CCCCC1 [gabapentin, reference compound] |  |  |  |  |  |  |  |  |  |  |  |  |  |  |  |  |  |  |  | % analgesia (Sprague Dawley rats; 1 week post-administration, control group of the study): under 5%; % analgesia (Sprague Dawley rats; 1 wk, example (typical) control values): 0%; % analgesia (Sprague Dawley rats; 1 h, example (typical) control values): 77%; % analgesia (Sprague Dawley rats; 1 h post-administration, control group of the study): at least 50%; % analgesia (Sprague Dawley rats; 24 h, example (typical) control values): 17%; % analgesia (Sprague Dawley rats; 24 h post-administration, control group of the study): under 5% |
